Tests used:
[1] = system: Human immunodeficiency virus 1; test: Antiviral activity against wild type HIV1 VSVG infected in 293ET cells assessed as inhibition of viral replication by luciferase reporter gene assay; type: functional, organism-based
[2] = system: Human immunodeficiency virus 1; test: Selectivity ratio of IC50 for HIV1 VSVG harboring reverse transcriptase Y181C mutant to IC50 for wild type HIV1 VSVG; type: functional
[3] = system: Human immunodeficiency virus 1; test: Selectivity ratio of IC50 for HIV1 VSVG harboring reverse transcriptase K103N mutant to IC50 for wild type HIV1 VSVG; type: functional
[4] = system: Human immunodeficiency virus 1; test: Antiviral activity against HIV1 VSVG harboring reverse transcriptase Y181C mutant infected in 293ET cellsassessed as inhibition of viral replication by luciferase reporter gene assay; type: functional, organism-based
[5] = system: Human immunodeficiency virus 1; test: Antiviral activity against HIV1 VSVG harboring reverse transcriptase K103N mutant infected in 293ET cells assessed as inhibition of viral replication by luciferase reporter gene assay; type: functional, organism-based
[6] = Human immunodeficiency virus 1, VSVG, 293ET, read-out: IC50

Compound	IC50 [1, 6]	Ratio IC50 [2]	Ratio IC50 [3]	IC50 [4]	IC50 [5]	IC50 ([1]; 293et)
COC(=O)c1sc(-c2cccs2)cc1S(=O)(=O)N1c2cc(Cl)ccc2NC(=O)C1C (stereo unspecified)	6.53 µM	–	–	–	–	–
COC(=O)c1sc(-c2ccco2)cc1S(=O)(=O)N1c2cc(Cl)ccc2NC(=O)C1C (stereo unspecified)	1.97 µM	>5	>5	> 10 µM	> 10 µM	–
CC1C(=O)Nc2ccc(Cl)cc2N1S(=O)(=O)c1ccsc1C(=O)O (stereo unspecified)	–	–	–	–	–	Not Active
CC1C(=O)Nc2ccc(Cl)cc2N1S(=O)(=O)c1cc(Cl)sc1C(=O)O (stereo unspecified)	–	–	–	–	–	Not Active
CC(C)OC(=O)c1sccc1S(=O)(=O)N1c2cc(Cl)ccc2NC(=O)C1C (stereo unspecified)	1.09 µM	>9	>9	> 10 µM	> 10 µM	–
CC(C)=CCOC(=O)c1sccc1S(=O)(=O)N1c2cc(Cl)ccc2NC(=O)C1C (stereo unspecified)	0.77 µM	>13	>13	> 10 µM	> 10 µM	–
CC(C)OC(=O)c1sc(Cl)cc1S(=O)(=O)N1c2cc(Cl)ccc2NC(=O)C1C (stereo unspecified)	5.55 µM	–	–	–	–	–
CON(C)C(=O)c1sccc1S(=O)(=O)N1c2cc(Cl)ccc2NC(=O)C1C (stereo unspecified)	–	–	–	–	–	Not Active
CC(C)NC(=O)c1sccc1S(=O)(=O)N1c2cc(Cl)ccc2NC(=O)C1C (stereo unspecified)	–	–	–	–	–	Not Active
CC1C(=O)Nc2ccc(Cl)cc2N1S(=O)(=O)c1ccsc1CO (stereo unspecified)	–	–	–	–	–	Not Active
CC1C(=O)Nc2ccc(Cl)cc2N1S(=O)(=O)c1cc(Cl)sc1CO (stereo unspecified)	–	–	–	–	–	Not Active
CC1C(=O)Nc2ccc(Cl)cc2N1S(=O)(=O)c1ccsc1C=O (stereo unspecified)	–	–	–	–	–	Not Active
CC1C(=O)Nc2ccc(Cl)cc2N1S(=O)(=O)c1cc(Cl)sc1C=O (stereo unspecified)	–	–	–	–	–	Not Active
CC1C(=O)Nc2ccc(Cl)cc2N1S(=O)(=O)c1ccsc1/C=N\c1nccs1 (stereo unspecified)	–	–	–	–	–	Not Active
CC1C(=O)Nc2ccc(Cl)cc2N1S(=O)(=O)c1cc(Cl)sc1/C=N\c1nccs1 (stereo unspecified)	–	–	–	–	–	Not Active
CC1C(=O)Nc2ccc(Cl)cc2N1S(=O)(=O)c1cc(Cl)sc1-c1cnco1 (stereo unspecified)	4.44 µM	–	–	–	–	–
CC1C(=O)Nc2ccc(Cl)cc2N1S(=O)(=O)c1ccsc1CNc1nccs1 (stereo unspecified)	–	–	–	–	–	Not Active
CC1C(=O)Nc2ccc(Cl)cc2N1S(=O)(=O)c1cc(Cl)sc1CNc1nccs1 (stereo unspecified)	–	–	–	–	–	Not Active
COC(=O)c1sc(Cl)cc1S(=O)(=O)N1c2cc(Cl)ccc2NC(=O)C1C (stereo unspecified)	0.07 µM	>143	113	> 10 µM	7.94 µM	–
COC(=O)c1sc(Br)cc1S(=O)(=O)N1c2cc(Cl)ccc2NC(=O)C1C (stereo unspecified)	0.13 µM	>77	49	> 10 µM	6.39 µM	–
COC(=O)c1sc(I)cc1S(=O)(=O)N1c2cc(Cl)ccc2NC(=O)C1C (stereo unspecified)	0.075 µM	>133	89	> 10 µM	6.68 µM	–
COC(=O)c1sc(-c2ccccc2)cc1S(=O)(=O)N1c2cc(Cl)ccc2NC(=O)C1C (stereo unspecified)	9.05 µM	–	–	–	–	–
COC(=O)c1sc(-c2cccc(OC)c2)cc1S(=O)(=O)N1c2cc(Cl)ccc2NC(=O)C1C (stereo unspecified)	9.68 µM	–	–	–	–	–
COC(=O)c1sccc1S(=O)(=O)N1c2cc(Cl)ccc2NC(=O)C1C (stereo unspecified)	–	>50	13	> 10 µM	2.6 µM	–
Cc1ccnc2c1NC(=O)c1cccnc1N2C1CC1 [NEVIRAPINE]	0.04 µM	>250	32	> 10 µM	1.29 µM	–

Source: ChEMBL document CHEMBL3132804, “Synthesis and biological evaluation of novel quinoxalinone-based HIV-1 reverse transcriptase inhibitors” (Medchemcomm, 2014)
